System: MV-4-11 cells
Test: Gene expression microarray analysis (Affymetrix PrimeView) and GSEA
Assay type: cell-based, human
Set-up: RFU PODN (11730768_x_at) / Fold change /veh PODN (11730768_x_at) / RFU LINC00158 (11744669_a_at) / Fold change /veh LINC00158 (11744669_a_at) / RFU DUSP10 (11751237_a_at) / Fold change /veh DUSP10 (11751237_a_at) / RFU ID3 (11757404_x_at) / Fold change /veh ID3 (11757404_x_at) / RFU PLEKHG5 (11737974_s_at) / Fold change /veh PLEKHG5 (11737974_s_at) / RFU LRRC4B (11730491_at) / Fold change /veh LRRC4B (11730491_at) / RFU GIMAP4 (11747438_a_at) / Fold change /veh GIMAP4 (11747438_a_at) / RFU KRT8 (11758183_x_at) / Fold change /veh KRT8 (11758183_x_at) / RFU CNN1 (11734310_a_at) / Fold change /veh CNN1 (11734310_a_at) / RFU VPS37D (11726825_at) / Fold change /veh VPS37D (11726825_at) / RFU C10orf10 (11716522_x_at) / Fold change /veh C10orf10 (11716522_x_at) / RFU KIR2DL2 /// KIR2DL4 /// KIR2DL5A /// KIR2DL5B /// KIR2DS1 /// KIR2DS2 /// KIR2DS3 /// KIR2DS4 /// KIR3DL3 /// KIR3DL3 /// KIR3DS1 (11738374_at) / Fold change /veh KIR2DL2 /// KIR2DL4 /// KIR2DL5A /// KIR2DL5B /// KIR2DS1 /// KIR2DS2 /// KIR2DS3 /// KIR2DS4 /// KIR3DL3 /// KIR3DL3 /// KIR3DS1 (11738374_at) / RFU C1QL1 (11718748_at) / Fold change /veh C1QL1 (11718748_at) / RFU TMPRSS4 (11747572_a_at) / Fold change /veh TMPRSS4 (11747572_a_at) / RFU HAMP (11756126_x_at) / Fold change /veh HAMP (11756126_x_at) / RFU RNFT2 (11725882_a_at) / Fold change /veh RNFT2 (11725882_a_at) / RFU NR4A2 (11747474_a_at) / Fold change /veh NR4A2 (11747474_a_at) / RFU ABCC12 (11746883_a_at) / Fold change /veh ABCC12 (11746883_a_at) / RFU TMEM136 (11760407_x_at) / Fold change /veh TMEM136 (11760407_x_at) / RFU CLDN22 /// WWC2 (11732394_at) / Fold change /veh CLDN22 /// WWC2 (11732394_at) / RFU HLA-DPB1 (11760878_x_at) / Fold change /veh HLA-DPB1 (11760878_x_at) / RFU SPINT1 (11716480_a_at) / Fold change /veh SPINT1 (11716480_a_at) / RFU GAP43 (11754022_s_at) / Fold change /veh GAP43 (11754022_s_at) / RFU A4GNT (11735810_at) / Fold change /veh A4GNT (11735810_at) / RFU PRB3 (11715151_x_at) / Fold change /veh PRB3 (11715151_x_at) / RFU TUBB4B (11761932_at) / Fold change /veh TUBB4B (11761932_at) / RFU CAPN14 (11732068_a_at) / Fold change /veh CAPN14 (11732068_a_at) / RFU TMCC2 (11721928_a_at) / Fold change /veh TMCC2 (11721928_a_at) / RFU IRGQ (11745062_a_at) / Fold change /veh IRGQ (11745062_a_at) / RFU FAM174B (11720279_a_at) / Fold change /veh FAM174B (11720279_a_at) / RFU TMPRSS4 (11748680_a_at) / Fold change /veh TMPRSS4 (11748680_a_at) / RFU FAM212B (11763350_a_at) / Fold change /veh FAM212B (11763350_a_at) / RFU PLEKHG5 (11743358_a_at) / Fold change /veh PLEKHG5 (11743358_a_at) / RFU ZSCAN30 (11745921_a_at) / Fold change /veh ZSCAN30 (11745921_a_at) / RFU CMKLR1 (11741424_a_at) / Fold change /veh CMKLR1 (11741424_a_at) / RFU LOC101060620 /// MAPK8IP1 (11723275_at) / Fold change /veh LOC101060620 /// MAPK8IP1 (11723275_at) / RFU SPTSSB (11747773_x_at) / Fold change /veh SPTSSB (11747773_x_at) / RFU PRSS12 (11739890_at) / Fold change /veh PRSS12 (11739890_at) / RFU BIN1 (11741810_x_at) / Fold change /veh BIN1 (11741810_x_at) / RFU WNT11 (11732464_a_at) / Fold change /veh WNT11 (11732464_a_at) / RFU C10orf10 (11716521_a_at) / Fold change /veh C10orf10 (11716521_a_at) / RFU C5orf56 (11738089_at) / Fold change /veh C5orf56 (11738089_at) / RFU CYB561 (11721691_x_at) / Fold change /veh CYB561 (11721691_x_at) / RFU ANKRD19P (11752326_a_at) / Fold change /veh ANKRD19P (11752326_a_at) / RFU OR2T12 /// OR2T33 /// OR2T8 (11738714_s_at) / Fold change /veh OR2T12 /// OR2T33 /// OR2T8 (11738714_s_at) / RFU VCAN (11748164_a_at) / Fold change /veh VCAN (11748164_a_at) / RFU JSRP1 (11732532_at) / Fold change /veh JSRP1 (11732532_at) / RFU KRTAP10-11 (11738290_x_at) / Fold change /veh KRTAP10-11 (11738290_x_at) / RFU MYO3A (11730013_a_at) / Fold change /veh MYO3A (11730013_a_at) / RFU EBF3 (11725865_a_at) / Fold change /veh EBF3 (11725865_a_at) / RFU CAMK2N1 (11719241_x_at) / Fold change /veh CAMK2N1 (11719241_x_at) / RFU C5orf56 (11738088_a_at) / Fold change /veh C5orf56 (11738088_a_at) / RFU OLFML3 (11715873_a_at) / Fold change /veh OLFML3 (11715873_a_at) / RFU LOC100653217 /// NTM (11731650_a_at) / Fold change /veh LOC100653217 /// NTM (11731650_a_at) / RFU MAPK11 (11762145_a_at) / Fold change /veh MAPK11 (11762145_a_at) / RFU FIZ1 (11724087_x_at) / Fold change /veh FIZ1 (11724087_x_at) / RFU OASL (11726364_x_at) / Fold change /veh OASL (11726364_x_at) / RFU SOX15 (11748057_x_at) / Fold change /veh SOX15 (11748057_x_at) / RFU CD79A (11719716_a_at) / Fold change /veh CD79A (11719716_a_at) / RFU HIST1H1D (11736915_at) / Fold change /veh HIST1H1D (11736915_at) / RFU CASKIN2 (11723855_a_at) / Fold change /veh CASKIN2 (11723855_a_at) / RFU LOC730098 (11760151_x_at) / Fold change /veh LOC730098 (11760151_x_at) / RFU OR4N2 (11742367_at) / Fold change /veh OR4N2 (11742367_at) / RFU PRRT2 (11749266_a_at) / Fold change /veh PRRT2 (11749266_a_at) / RFU SNX32 (11753110_a_at) / Fold change /veh SNX32 (11753110_a_at) / RFU CDHR5 (11726645_a_at) / Fold change /veh CDHR5 (11726645_a_at) / RFU RCAN1 (11760418_a_at) / Fold change /veh RCAN1 (11760418_a_at) / RFU FAM167A (11723789_a_at) / Fold change /veh FAM167A (11723789_a_at) / RFU FAM26E (11764081_at) / Fold change /veh FAM26E (11764081_at) / RFU ISYNA1 (11749810_s_at) / Fold change /veh ISYNA1 (11749810_s_at) / RFU ACY1 (11761880_at) / Fold change /veh ACY1 (11761880_at) / RFU 11764098_at / Fold change /veh 11764098_at / RFU SAMD14 (11745864_x_at) / Fold change /veh SAMD14 (11745864_x_at) / RFU NPB (11741838_a_at) / Fold change /veh NPB (11741838_a_at) / RFU TMPRSS6 (11731388_a_at) / Fold change /veh TMPRSS6 (11731388_a_at) / RFU KRTAP10-2 (11738614_at) / Fold change /veh KRTAP10-2 (11738614_at) / RFU ARHGAP8 /// PRR5-ARHGAP8 (11727945_x_at) / Fold change /veh ARHGAP8 /// PRR5-ARHGAP8 (11727945_x_at) / RFU KRTAP5-7 /// NADSYN1 (11734609_at) / Fold change /veh KRTAP5-7 /// NADSYN1 (11734609_at) / RFU RASL12 (11751679_a_at) / Fold change /veh RASL12 (11751679_a_at) / RFU CDKN2B (11736163_a_at) / Fold change /veh CDKN2B (11736163_a_at) / RFU PRF1 (11729649_at) / Fold change /veh PRF1 (11729649_at) / RFU, ZNF638 /// ZNF638-IT1 / Fold change vs veh, ZNF638 /// ZNF638-IT1 / RFU, PANK3 / Fold change vs veh, PANK3 / RFU, SH3YL1 / Fold change vs veh, SH3YL1 / RFU, ZEB2 / Fold change vs veh, ZEB2 / RFU, NRIP1 / Fold change vs veh, NRIP1 / RFU, PTTG1IP / Fold change vs veh, PTTG1IP / RFU, CAPN2 / Fold change vs veh, CAPN2 / RFU, MED14 / Fold change vs veh, MED14 / RFU, SNORA58 / Fold change vs veh, SNORA58 / RFU, C1orf63 / Fold change vs veh, C1orf63 / RFU, LRRFIP1 / Fold change vs veh, LRRFIP1 / RFU, NDUFAF7 / Fold change vs veh, NDUFAF7 / RFU, SLC12A2 / Fold change vs veh, SLC12A2 / RFU, IBTK / Fold change vs veh, IBTK / RFU, ESF1 / Fold change vs veh, ESF1 / Fold change vs veh, TMEM50B / RFU, TAOK1 / Fold change vs veh, TAOK1 / RFU, ACBD3 / Fold change vs veh, ACBD3 / RFU, TMA16 / Fold change vs veh, TMA16 / RFU, RWDD3 / Fold change vs veh, RWDD3 / RFU, BCAT1 / Fold change vs veh, BCAT1 / RFU, EDEM3 / Fold change vs veh, EDEM3 / RFU, TMEM33 / Fold change vs veh, TMEM33 / RFU, WDR75 / Fold change vs veh, WDR75 / RFU, AHCTF1 / Fold change vs veh, AHCTF1 / RFU, TFRC / Fold change vs veh, TFRC / RFU, ZDHHC17 / Fold change vs veh, ZDHHC17 / RFU, NOM1 / Fold change vs veh, NOM1 / RFU, ARL8B / Fold change vs veh, ARL8B / RFU, ZBTB11 / Fold change vs veh, ZBTB11 / RFU, TAMM41 / Fold change vs veh, TAMM41 / RFU, KIAA1704 /// LOC100996395 / Fold change vs veh, KIAA1704 /// LOC100996395 / RFU, ING1 / Fold change vs veh, ING1 / RFU, TRMT61B / Fold change vs veh, TRMT61B / RFU, FUBP3 / Fold change vs veh, FUBP3 / RFU, TP53 / Fold change vs veh, TP53 / RFU, TNKS2 / Fold change vs veh, TNKS2 / RFU, ZFP14 / Fold change vs veh, ZFP14 / RFU, ACTR2 / Fold change vs veh, ACTR2 / RFU, PPP3R1 / Fold change vs veh, PPP3R1 / RFU, PIK3R1 / Fold change vs veh, PIK3R1 / RFU, HNRNPA1 / Fold change vs veh, HNRNPA1 / RFU, RNF170 / Fold change vs veh, RNF170 / RFU, ZNF28 / Fold change vs veh, ZNF28 / RFU, RNGTT / Fold change vs veh, RNGTT / RFU, OGT / Fold change vs veh, OGT / RFU, BRD1 / Fold change vs veh, BRD1 / RFU, MARS / Fold change vs veh, MARS / RFU, ZNF655 / Fold change vs veh, ZNF655 / RFU, FAHD1 / Fold change vs veh, FAHD1 / RFU, BDP1 / Fold change vs veh, BDP1 / RFU, LRRCC1 / Fold change vs veh, LRRCC1 / RFU, ARID1A / Fold change vs veh, ARID1A / RFU, ZNF146 / Fold change vs veh, ZNF146 / RFU, ZNF330 / Fold change vs veh, ZNF330 / RFU, GPN3 / Fold change vs veh, GPN3 / RFU, C9orf123 / Fold change vs veh, C9orf123 / RFU, N4BP2L2 / Fold change vs veh, N4BP2L2 / RFU, ARFIP1 / Fold change vs veh, ARFIP1 / RFU, FAM179B / Fold change vs veh, FAM179B / RFU, BCL10 / Fold change vs veh, BCL10 / RFU, UHRF1BP1L / Fold change vs veh, UHRF1BP1L / RFU, BET1 / Fold change vs veh, BET1 / RFU, CNOT2 / Fold change vs veh, CNOT2 / RFU, ZNF268 / Fold change vs veh, ZNF268 / Fold change vs veh, ZNF507 / RFU, DGCR2 / Fold change vs veh, DGCR2 / RFU, WDSUB1 / Fold change vs veh, WDSUB1 / Fold change vs veh, HSP90B1 /// MIR3652 / RFU, ADSS / Fold change vs veh, ADSS / RFU, GK / Fold change vs veh, GK / RFU, ZNF148 / Fold change vs veh, ZNF148 / RFU, TAF9 / Fold change vs veh, TAF9 / RFU, SLC1A5 / Fold change vs veh, SLC1A5 / RFU, SLMO2 / Fold change vs veh, SLMO2 / RFU, ABCC4 / Fold change vs veh, ABCC4 / RFU, LOC101060439 /// RAP1B / Fold change vs veh, LOC101060439 /// RAP1B / RFU, RFX7 / Fold change vs veh, RFX7 / RFU, GTPBP10 / Fold change vs veh, GTPBP10 / RFU, CNEP1R1 / Fold change vs veh, CNEP1R1 / RFU, BIVM-ERCC5 /// ERCC5 / Fold change vs veh, BIVM-ERCC5 /// ERCC5 / RFU, ILF3 / Fold change vs veh, ILF3 / RFU 11762660_at / Fold change /veh 11762660_at / RFU VCAN (11757783_s_at) / Fold change /veh VCAN (11757783_s_at) / RFU DDX43 (11728927_at) / Fold change /veh DDX43 (11728927_at) / RFU KRT8 (11758188_x_at) / Fold change /veh KRT8 (11758188_x_at) / RFU NKD1 (11759106_at) / Fold change /veh NKD1 (11759106_at) / RFU SRD5A1 (11742802_a_at) / Fold change /veh SRD5A1 (11742802_a_at) / RFU TPSAB1 /// TPSB2 (11721975_s_at) / Fold change /veh TPSAB1 /// TPSB2 (11721975_s_at) / RFU GSTM3 (11746129_a_at) / Fold change /veh GSTM3 (11746129_a_at) / RFU IL23R (11737362_x_at) / Fold change /veh IL23R (11737362_x_at) / RFU TMEM51 (11727254_a_at) / Fold change /veh TMEM51 (11727254_a_at) / RFU PIWIL2 (11732686_x_at) / Fold change /veh PIWIL2 (11732686_x_at) / RFU ORM1 (11744905_x_at) / Fold change /veh ORM1 (11744905_x_at) / RFU CCDC152 (11743942_at) / Fold change /veh CCDC152 (11743942_at) / RFU ECM1 (11717891_a_at) / Fold change /veh ECM1 (11717891_a_at) / RFU IL23R (11748794_a_at) / Fold change /veh IL23R (11748794_a_at) / RFU TNFAIP8L3 (11732012_x_at) / Fold change /veh TNFAIP8L3 (11732012_x_at) / RFU MBOAT4 (11741988_at) / Fold change /veh MBOAT4 (11741988_at) / RFU 11764193_at / Fold change /veh 11764193_at / RFU TMEM53 (11763286_at) / Fold change /veh TMEM53 (11763286_at) / RFU MAGEB2 (11727129_at) / Fold change /veh MAGEB2 (11727129_at) / RFU TMEM200A (11744735_a_at) / Fold change /veh TMEM200A (11744735_a_at) / RFU CCDC152 (11751479_a_at) / Fold change /veh CCDC152 (11751479_a_at) / RFU FAM211A (11726209_a_at) / Fold change /veh FAM211A (11726209_a_at) / RFU RGS16 (11746705_a_at) / Fold change /veh RGS16 (11746705_a_at) / RFU VCAN (11755009_s_at) / Fold change /veh VCAN (11755009_s_at) / RFU RHOB (11743442_s_at) / Fold change /veh RHOB (11743442_s_at) / RFU RGS16 (11720943_a_at) / Fold change /veh RGS16 (11720943_a_at) / RFU RGS16 (11720944_at) / Fold change /veh RGS16 (11720944_at) / RFU, VPS4B / Fold change vs veh, VPS4B / RFU, CREB1 / Fold change vs veh, CREB1 / RFU, DNAJC13 / Fold change vs veh, DNAJC13 / RFU, GNAQ / Fold change vs veh, GNAQ / RFU, CDK5R1 / Fold change vs veh, CDK5R1 / RFU, ZRANB3 / Fold change vs veh, ZRANB3 / RFU, CUL4A / Fold change vs veh, CUL4A / RFU, CCNY / Fold change vs veh, CCNY / RFU, UFL1 / Fold change vs veh, UFL1 / RFU, COG3 / Fold change vs veh, COG3 / RFU, DIAPH2 / Fold change vs veh, DIAPH2 / RFU, SKA2 / Fold change vs veh, SKA2 / RFU, AFF3 / Fold change vs veh, AFF3 / RFU, LMF1 / Fold change vs veh, LMF1 / RFU, IPO11 / Fold change vs veh, IPO11 / RFU, DFFB / Fold change vs veh, DFFB / RFU, FOXP1 / Fold change vs veh, FOXP1 / RFU, CARD8 / Fold change vs veh, CARD8 / RFU, STRN3 / Fold change vs veh, STRN3 / RFU, ADK / Fold change vs veh, ADK / RFU, RASSF2 / Fold change vs veh, RASSF2 / RFU, WIPF1 / Fold change vs veh, WIPF1 / RFU, LARP1B / Fold change vs veh, LARP1B / RFU, RASA1 / Fold change vs veh, RASA1 / RFU, RB1 / Fold change vs veh, RB1 / RFU, PPFIA1 / Fold change vs veh, PPFIA1 / RFU, MAT2A / Fold change vs veh, MAT2A / RFU, CCT5 / Fold change vs veh, CCT5 / RFU, WDR92 / Fold change vs veh, WDR92 / RFU, CUX1 / Fold change vs veh, CUX1 / RFU, TTC7A / Fold change vs veh, TTC7A / RFU, TMEM135 / Fold change vs veh, TMEM135 / RFU, DEPTOR / Fold change vs veh, DEPTOR / RFU, CPM / Fold change vs veh, CPM / RFU, DNAJB6 / Fold change vs veh, DNAJB6 / RFU, CACNA2D3 / Fold change vs veh, CACNA2D3 / RFU, DTX4 / Fold change vs veh, DTX4 / RFU, TFCP2 / Fold change vs veh, TFCP2 / RFU, GMCL1 /// GMCL1P1 / Fold change vs veh, GMCL1 /// GMCL1P1 / RFU, AEBP2 / Fold change vs veh, AEBP2 / RFU, SNHG1 /// SNORD22 /// SNORD25 /// SNORD26 /// SNORD27 /// SNORD28 /// SNORD29 /// SNORD31 / Fold change vs veh, SNHG1 /// SNORD22 /// SNORD25 /// SNORD26 /// SNORD27 /// SNORD28 /// SNORD29 /// SNORD31 / Fold change (Aza/veh), C12orf56 (ProbeSet 11735607_a_at) / Fold change (ACY-1035/veh), C12orf56 (ProbeSet 11735607_a_at) / Fold change (Aza/veh), FGFR1OP (ProbeSet 11751329_s_at) / Fold change (ACY-1035/veh), FGFR1OP (ProbeSet 11751329_s_at) / Fold change (Aza/veh), VPS36 (ProbeSet 11739960_a_at) / Fold change (ACY-1035/veh), VPS36 (ProbeSet 11739960_a_at) / RFU SYPL1 (11715823_x_at) / Fold change /veh SYPL1 (11715823_x_at) / RFU IGFBP7 (11715501_s_at) / Fold change /veh IGFBP7 (11715501_s_at) / RFU REEP3 (11722064_at) / Fold change /veh REEP3 (11722064_at) / RFU IGLL1 (11728026_x_at) / Fold change /veh IGLL1 (11728026_x_at): dose or concentration left out as unconfirmed
Details: ProbeSet 11748670_a_at; LIST B

## Nc1ncn([C@@H]2O[C@H](CO)[C@@H](O)[C@H]2O)c(=O)n1 [azacitidine]
  RFU, PIK3R1: 80.66 RFU
